Measurements from ChEMBL document CHEMBL1124960, “Histamine H3 ligands: just pharmacological tools or potential therapeutic agents?” (J Med Chem, 1990).

Experiments:
[1] = species on record: Rattus norvegicus; assay: Evaluated for inhibition of [3H]histamine release from preloaded slices and is represented as pD2; assay type: functional
[2] = biological target: T1, Histamine H3 receptor (Rattus norvegicus, UniProt Q9QYN8); assay: (§1) Evaluated for antagonist activity against Histamine H3 receptor and represented as KB.; assay type: functional
[3] = biological target: T1, Histamine H3 receptor; assay: Evaluated for antagonist activity against histamine H3 receptor and is represented as -log Ki.; assay type: functional
[4] = biological target: Histamine H2 receptor (Cavia porcellus, UniProt P47747); assay: Evaluated for activity against Histamine H2 receptor in guinea pig atrium and represented pA2; assay type: tissue-based, Cardiac atrium; settings: read-out: pA2 (converted)
[5] = biological target: Histamine H2 receptor (Cavia porcellus) (UniProt P47747); assay: Evaluated for activity against Histamine H2 receptor in guinea pig atrium and represented as alpha; assay type: tissue-based; settings: Cardiac atrium
[6] = biological target: Histamine H3 receptor (Rattus norvegicus) (UniProt Q9QYN8); assay: Evaluated for activity against H3 receptor and represented as %recovery histamine release at a concentration 5 x 10 E -6M.
Target sequence in this assay (Q9QYN8 whole entry, looked up): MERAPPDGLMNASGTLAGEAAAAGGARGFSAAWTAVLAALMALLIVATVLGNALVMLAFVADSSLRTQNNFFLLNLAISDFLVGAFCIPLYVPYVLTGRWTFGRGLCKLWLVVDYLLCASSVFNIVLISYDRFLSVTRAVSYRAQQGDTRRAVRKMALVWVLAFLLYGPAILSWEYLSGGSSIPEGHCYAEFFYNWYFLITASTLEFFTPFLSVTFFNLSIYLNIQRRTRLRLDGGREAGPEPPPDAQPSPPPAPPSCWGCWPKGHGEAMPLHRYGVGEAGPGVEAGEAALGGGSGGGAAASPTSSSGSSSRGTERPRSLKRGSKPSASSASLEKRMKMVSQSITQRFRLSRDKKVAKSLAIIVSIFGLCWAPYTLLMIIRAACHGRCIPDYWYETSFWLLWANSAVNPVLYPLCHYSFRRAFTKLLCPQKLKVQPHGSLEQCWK

[7] = biological target: Histamine H1 receptor (Cavia porcellus) (UniProt P31389); assay: Evaluated for agonistic activity at histamine H1 receptor of guinea pig ileum and is represented as potency; assay type: functional, tissue-based
[8] = biological target: Histamine H2 receptor (Cavia porcellus) (UniProt P47747); assay: Evaluated for agonistic (intrinsic) activity at histamine H2 receptor of guinea pig atrium and is represented as intrinsic activity; assay type: functional, tissue-based; settings: Cardiac atrium
[9] = biological target: Histamine H1 receptor (Cavia porcellus) (UniProt P31389); assay: Evaluated for agonistic activity at histamine H1 receptor of guinea pig ileum and is represented as intrinsic activity; assay type: functional, tissue-based
[10] = biological target: Histamine H3 receptor (Rattus norvegicus) (UniProt Q9QYN8); assay: Evaluated for antagonist activity against histamine H3 receptor and represented as KB; assay type: functional
Target sequence in this assay (Q9QYN8 whole entry): as the sequence (Q9QYN8 whole entry, looked up) above

[11] = biological target: Histamine H2 receptor (Cavia porcellus) (UniProt P47747); assay: Evaluated for activity at Histamine H2 receptor in guinea pig ileum; assay type: tissue-based
[12] = biological target: Histamine H1 receptor (Cavia porcellus) (UniProt P31389); assay: Evaluated for activity at Histamine H1 receptor in guinea pig ileum; assay type: tissue-based
[13] = species on record: Rattus norvegicus; assay: Relative inhibition of [3H]histamine release from pre-loaded slices of rat cerebral cortex; assay type: functional
[14] = biological target: Histamine H2 receptor (Cavia porcellus) (UniProt P47747); assay: Evaluated for antagonist activity against histamine H2 receptor and represented as KB.; assay type: functional
[15] = biological target: Histamine H3 receptor (Rattus norvegicus) (UniProt Q9QYN8); assay: Evaluated for antagonist activity against histamine H3 receptor and represented as KB.; assay type: functional
Target sequence in this assay (Q9QYN8 whole entry): as the sequence (Q9QYN8 whole entry, looked up) above

[16] = species on record: Rattus norvegicus; assay: Histamine level after treatment was determined for both agents (R-alpha-methylhistamine, thioperamide) in; assay type: functional
[17] = species on record: Rattus norvegicus; assay: Histamine level after treatment was determined for both agents (R-alpha-methylhistamine, thioperamide) in adbominal skin.; assay type: functional
[18] = species on record: Rattus norvegicus; assay: Histamine level after treatment was determined for both agents (R-alpha-methylhistamine, thioperamide) in cerebral cortex; assay type: functional
[19] = species on record: Rattus norvegicus; assay: Histamine level after treatment was determined for both agents (R-alpha-methylhistamine, thioperamide) in hypothalamus.; assay type: functional
[20] = species on record: Rattus norvegicus; assay: Histamine level after treatment was determined for both agents (R-alpha-methylhistamine, thioperamide) in lung.; assay type: functional
[21] = species on record: Rattus norvegicus; assay: Histamine level after treatment was determined for both agents (R-alpha-methylhistamine, thioperamide) in spleen; assay type: functional
[22] = biological target: Histamine H1 receptor (Cavia porcellus) (UniProt P31389); assay: Evaluated for antagonist activity against histamine H1 receptor and represented as KB; assay type: functional
[23] = biological target: Histamine H3 receptor (Cavia porcellus) (UniProt Q9JI35); assay: as §1; assay type: functional
Sequence of Histamine H3 receptor (Cavia porcellus) (Q9JI35 whole entry): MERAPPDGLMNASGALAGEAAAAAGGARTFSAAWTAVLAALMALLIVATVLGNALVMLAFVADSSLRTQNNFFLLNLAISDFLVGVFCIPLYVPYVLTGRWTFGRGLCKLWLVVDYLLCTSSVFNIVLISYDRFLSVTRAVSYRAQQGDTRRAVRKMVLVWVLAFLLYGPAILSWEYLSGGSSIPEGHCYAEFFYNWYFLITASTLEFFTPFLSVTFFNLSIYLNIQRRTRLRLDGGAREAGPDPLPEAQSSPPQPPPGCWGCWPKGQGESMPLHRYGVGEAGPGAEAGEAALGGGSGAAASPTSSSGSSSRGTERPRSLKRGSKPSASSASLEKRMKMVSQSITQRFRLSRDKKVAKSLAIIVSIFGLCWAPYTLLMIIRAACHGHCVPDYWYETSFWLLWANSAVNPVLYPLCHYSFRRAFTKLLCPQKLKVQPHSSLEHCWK

Sequence of Histamine H2 receptor (Cavia porcellus) (P47747 whole entry): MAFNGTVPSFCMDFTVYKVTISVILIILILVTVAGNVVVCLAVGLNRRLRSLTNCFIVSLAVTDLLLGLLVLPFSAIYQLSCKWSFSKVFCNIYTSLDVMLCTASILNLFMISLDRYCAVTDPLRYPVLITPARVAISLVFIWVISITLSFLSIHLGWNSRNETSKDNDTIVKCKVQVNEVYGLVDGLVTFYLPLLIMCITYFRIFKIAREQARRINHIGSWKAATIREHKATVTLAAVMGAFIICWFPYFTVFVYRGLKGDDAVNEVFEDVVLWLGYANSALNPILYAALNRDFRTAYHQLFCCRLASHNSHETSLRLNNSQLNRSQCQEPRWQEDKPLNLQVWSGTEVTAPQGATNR
Sequence of Histamine H1 receptor (Cavia porcellus) (P31389 whole entry): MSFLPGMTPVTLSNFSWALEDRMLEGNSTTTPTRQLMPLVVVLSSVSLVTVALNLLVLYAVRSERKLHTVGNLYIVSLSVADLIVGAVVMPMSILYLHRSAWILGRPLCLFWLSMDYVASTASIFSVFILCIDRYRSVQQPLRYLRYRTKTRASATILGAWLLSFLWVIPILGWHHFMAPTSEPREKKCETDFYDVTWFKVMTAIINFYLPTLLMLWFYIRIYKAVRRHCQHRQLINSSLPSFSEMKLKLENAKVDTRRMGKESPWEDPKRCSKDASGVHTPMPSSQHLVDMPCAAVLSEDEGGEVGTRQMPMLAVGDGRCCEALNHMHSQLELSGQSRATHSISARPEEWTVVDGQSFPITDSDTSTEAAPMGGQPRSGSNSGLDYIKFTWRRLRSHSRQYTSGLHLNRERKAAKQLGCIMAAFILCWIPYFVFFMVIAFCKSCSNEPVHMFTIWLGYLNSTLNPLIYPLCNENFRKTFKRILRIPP
T1 sequence (Q9QYN8 whole entry): as the sequence (Q9QYN8 whole entry, looked up) above
Sequence of Histamine H2 receptor (P47747 whole entry): as the sequence (P47747 whole entry) above

CC(C)NCCc1c[nH]cn1
pD2 [1]: <5.5

O=C(CCc1ccccc1)NCCc1cnc[nH]1
Ki [2]: 631 nM

O=C(CCCc1cnc[nH]1)NCCc1cnc[nH]1
Ki [3]: 1000 nM

CSCC/N=C(\NC#N)NCCCc1c[nH]cn1 [VUF-8406]
Kb [4]: 15.8 nM | Activity [5]: 0 | Release [6]: 100%

Cc1nc[nH]c1CSCCN/C(N)=N/[C@@H](C)Cc1c[nH]cn1
Potency [7]: 0 | Activity [8]: 0 | Activity [9]: 0

CN(C)CC[C@@H](c1ccc(Cl)cc1)c1ccccn1
KB [10]: > 58 nM

O=C(CCC(c1ccccc1)c1ccccc1)NCCc1c[nH]cn1
Ki [3]: 1000 nM

CN(C)CCCSC(=N)N
Activity [11]: 71 | Activity [12]: < 0.0001 | Ratio_EC50 [13]: <0.03

O=C(CCCc1ccccn1)NCCc1c[nH]cn1
Ki [2]: 1000 nM

CNC(=S)NCCSCc1[nH]cnc1C
KB [14]: 920 nM | KB [15]: 2.5 µM

Cc1nc[nH]c1CCN [4-METHYLHISTAMINE]
Activity [11]: 43 | Activity [12]: 0.23 | Ratio_EC50 [13]: <0.008

C[C@@H](N)Cc1c[nH]cn1.S=C(NC1CCCCC1)N1CCC(c2c[nH]cn2)CC1
Histamine level [16]: 75 | Histamine level [17]: 73 | Histamine level [18]: 196 | Histamine level [19]: 205 | Histamine level [20]: 143 | Histamine level [21]: 96

COc1ccc(CN(CCN(C)C)c2ccccn2)cc1
KB [22]: 440 pM | KB [10]: > 58 nM

CNC(=C[N+](=O)[O-])NCCSCc1ccc(CN(C)C)o1
KB [23]: 1.2 µM

Cc1ncc(CCN)[nH]1 [2-METHYLHISTAMINE]
Activity [11]: 4.4 | Activity [12]: 16.5 | Ratio_EC50 [13]: <0.008

C[C@H](N)Cc1c[nH]cn1
Activity [11]: 1.74 | Activity [12]: 0.49 | Ratio_EC50 [13]: 13

O=C(CCCCc1ccccc1)NCCc1cnc[nH]1
Ki [2]: 200 nM
